Assay results from ChEMBL document CHEMBL5113415, “Synthesis of 10,10'-bis(trifluoromethyl) marinopyrrole A derivatives and evaluation of their antiviral activities in vitro” (Eur J Med Chem, 2022).
pIC50: −log10 of the molar value.

How the values were obtained:
[1] = Selectivity index, ratio of CC50 for human RD cells to IC50 for CA6 infected in human RD cells; type: toxicity, cell-based; conditions: read-out: Ratio CC50/IC50
Yellow fever virus = experiment: Antiviral activity against YFV-17D infected in […] incubated for 7 days by CellTiter 96 luminescent cell viability assay; type: functional, organism-based; conditions: 168 h
[2] = Selectivity index, ratio of CC50 for […] to IC50 for ZIKV-SMGC-1 infected in […]; type: toxicity, cell-based; conditions: read-out: Ratio CC50/IC50
Enterovirus A71 = experiment: Antiviral activity against EV71 infected in human RD cells incubated for 3 days by CellTiter 96 luminescent cell viability assay; type: functional, organism-based; conditions: Enterovirus A, 71, RD, 72 h
[3] = tested on: Japanese encephalitis virus; experiment: Antiviral activity against JEV-SA14 infected in […] incubated for 7 days by CellTiter 96 luminescent cell viability assay; type: functional, organism-based; conditions: 168 h
[4] = Cytotoxicity against human RD cells infected with EV71 incubated for 3 days by CellTiter 96 luminescent cell viability assay; type: toxicity, cell-based; conditions: time 3 day
[5] = Cytotoxicity against […] infected with YFV-17D incubated for 7 days by CellTiter 96 luminescent cell viability assay; type: toxicity, cell-based; conditions: time 7 day
[6] = Cytotoxicity against […] infected with ZIKV-SMGC-1 incubated for 7 days by CellTiter 96 luminescent cell viability assay; type: toxicity, cell-based; conditions: time 7 day
Coxsackievirus A16 = experiment: Antiviral activity against CA16 infected in human RD cells incubated for 3 days by CellTiter 96 luminescent cell viability assay; type: functional, organism-based; conditions: Enterovirus A, 72 h
[7] = Cytotoxicity against human RD cells infected with CA16 incubated for 3 days by CellTiter 96 luminescent cell viability assay; type: toxicity, cell-based; conditions: time 3 day
[8] = Cytotoxicity against human RD cells infected with CA6 incubated for 3 days by CellTiter 96 luminescent cell viability assay; type: toxicity, cell-based; conditions: time 3 day
[9] = Selectivity index, ratio of CC50 for […] to IC50 for JEV-SA14 infected in […]; type: toxicity, cell-based; conditions: read-out: Ratio CC50/IC50
[10] = Cytotoxicity against […] infected with DENV-NGC-1 incubated for 7 days by CellTiter 96 luminescent cell viability assay; type: toxicity, cell-based; conditions: time 7 day
[11] = Cytotoxicity against […] infected with JEV-SA14 incubated for 7 days by CellTiter 96 luminescent cell viability assay; type: toxicity, cell-based; conditions: time 7 day
[12] = Selectivity index, ratio of CC50 for […] to IC50 for YFV-17D infected in […]; type: toxicity, cell-based; conditions: read-out: Ratio CC50/IC50
[13] = Selectivity index, ratio of CC50 for human RD cells to IC50 for EV71 infected in human RD cells; type: toxicity, cell-based; conditions: read-out: Ratio CC50/IC50
Coxsackievirus = experiment: Antiviral activity against CA6 infected in human RD cells incubated for 3 days by CellTiter 96 luminescent cell viability assay; type: functional, organism-based; conditions: A6, RD, 72 h
[14] = Selectivity index, ratio of CC50 for human RD cells to IC50 for CA16 infected in human RD cells; type: toxicity, cell-based; conditions: read-out: Ratio CC50/IC50
[15] = Selectivity index, ratio of CC50 for […] to IC50 for DENV-NGC infected in […]; type: toxicity, cell-based; conditions: read-out: Ratio CC50/IC50
Dengue virus = experiment: Antiviral activity against DENV-NGC-1 infected in […] incubated for 7 days by CellTiter 96 luminescent cell viability assay; type: functional, organism-based; conditions: NGC-1, BHK, 168 h
Zika virus = experiment: Antiviral activity against ZIKV-SMGC-1 infected in […] incubated for 7 days by CellTiter 96 luminescent cell viability assay; type: functional, organism-based; conditions: SMGC-1, BHK, 168 h

C#C[C@@]1(O)[C@H](O)[C@@H](CO)O[C@H]1n1ccc2c(N)ncnc21
selectivity ratio [1]: > 21.7 | pIC50 (Yellow fever virus): 5.72 | selectivity ratio [2]: > 12.3 | pIC50 (Enterovirus A71): 6.30 | pIC50 [3]: 5.51 | CC50 at 72 h [4]: > 20000 nM | CC50 at 168 h [5]: > 20000 nM | CC50 at 168 h [6]: > 20000 nM | pIC50 (Coxsackievirus A16): 6.15 | CC50 at 72 h [7]: > 20000 nM | CC50 at 72 h [8]: > 20000 nM | selectivity ratio [9]: > 6.47 | CC50 at 168 h [10]: > 20000 nM | CC50 at 168 h [11]: > 20000 nM | selectivity ratio [12]: > 10.5 | selectivity ratio [13]: > 40 | pIC50 (Coxsackievirus): 6.04 | selectivity ratio [14]: > 28.2 | selectivity ratio [15]: > 3.96 | pIC50 (Dengue virus): 5.30 | pIC50 (Zika virus): 5.79

O=C(c1ccc(C(F)(F)F)cc1O)c1[nH]c(Cl)c(Cl)c1-n1c(C(=O)c2ccc(C(F)(F)F)cc2O)cc(Cl)c1Sc1ncccn1
selectivity ratio [1]: 1.84 | pIC50 (Enterovirus A71): 7.05 | CC50 at 72 h [4]: 320 nM | pIC50 (Coxsackievirus A16): 7.52 | CC50 at 72 h [7]: 530 nM | CC50 at 72 h [8]: 530 nM | selectivity ratio [13]: 3.56 | pIC50 (Coxsackievirus): 6.54 | selectivity ratio [14]: 17.8

O=C(c1ccc(C(F)(F)F)cc1O)c1[nH]c(Cl)c(Cl)c1-n1c(C(=O)c2ccc(C(F)(F)F)cc2O)cc(Cl)c1SCc1ccccn1
selectivity ratio [1]: 1.8 | pIC50 (Enterovirus A71): 6.77 | pIC50 [3]: 6.38 | CC50 at 72 h [4]: 240 nM | CC50 at 168 h [6]: 320 nM | pIC50 (Coxsackievirus A16): 7.52 | CC50 at 72 h [7]: 340 nM | CC50 at 72 h [8]: 340 nM | selectivity ratio [9]: 0.61 | CC50 at 168 h [11]: 260 nM | selectivity ratio [13]: 1.43 | pIC50 (Coxsackievirus): 6.72 | selectivity ratio [14]: 11.5

O=C(c1ccc(C(F)(F)F)cc1O)c1[nH]c(Cl)c(Cl)c1-n1c(C(=O)c2ccc(C(F)(F)F)cc2O)cc(Cl)c1Sc1cccs1
selectivity ratio [1]: 3.67 | pIC50 (Yellow fever virus): 7.30 | pIC50 (Enterovirus A71): 7.70 | pIC50 [3]: 7.30 | CC50 at 72 h [4]: 80 nM | CC50 at 168 h [5]: 230 nM | pIC50 (Coxsackievirus A16): 8.00 | CC50 at 72 h [7]: 110 nM | CC50 at 72 h [8]: 110 nM | selectivity ratio [9]: 4.59 | CC50 at 168 h [11]: 230 nM | selectivity ratio [12]: 4.6 | selectivity ratio [13]: 4 | pIC50 (Coxsackievirus): 7.52 | selectivity ratio [14]: 12.2

O=C(c1ccc(C(F)(F)F)cc1O)c1[nH]c(Cl)c(Cl)c1-n1c(C(=O)c2ccc(C(F)(F)F)cc2O)cc(Cl)c1Sc1nc2ccccc2o1
selectivity ratio [1]: 3.18 | selectivity ratio [2]: 5 | pIC50 (Enterovirus A71): 6.52 | pIC50 [3]: 5.90 | CC50 at 72 h [4]: 920 nM | pIC50 (Coxsackievirus A16): 6.89 | CC50 at 72 h [7]: 1560 nM | CC50 at 72 h [8]: 1560 nM | selectivity ratio [9]: 1.44 | CC50 at 168 h [10]: 1800 nM | CC50 at 168 h [11]: 1800 nM | selectivity ratio [13]: 3.07 | pIC50 (Coxsackievirus): 6.31 | selectivity ratio [14]: 12 | selectivity ratio [15]: 5 | pIC50 (Dengue virus): 6.44 | pIC50 (Zika virus): 6.44

Cn1nnnc1Sc1c(Cl)cc(C(=O)c2ccc(C(F)(F)F)cc2O)n1-c1c(C(=O)c2ccc(C(F)(F)F)cc2O)[nH]c(Cl)c1Cl
selectivity ratio [1]: 1.56 | pIC50 (Yellow fever virus): 5.61 | selectivity ratio [2]: 2.52 | pIC50 [3]: 5.55 | CC50 at 168 h [5]: 2490 nM | CC50 at 168 h [6]: 3120 nM | pIC50 (Coxsackievirus A16): 6.02 | CC50 at 72 h [7]: 4300 nM | CC50 at 72 h [8]: 4290 nM | selectivity ratio [9]: 0.89 | CC50 at 168 h [10]: 3120 nM | CC50 at 168 h [11]: 2480 nM | selectivity ratio [12]: 1.01 | pIC50 (Coxsackievirus): 5.56 | selectivity ratio [14]: 4.48 | selectivity ratio [15]: 1.79 | pIC50 (Dengue virus): 5.76 | pIC50 (Zika virus): 5.91
